According to US8173133B2, “Acyl pseudodipeptides which carry a functionalized auxiliary arm” (OM Pharma, priority 1999, dated 2012):
Values after ≈ are worked out from the molar mass of the structure shown.

Legend:
[1] = tested on: bone marrow stem cells; test: bone marrow stem cell proliferation (XTT); assay type: cell-based, C57/BL6 mice; details: for Max amplitude: 7 days, XTT 492 nm; for Min amplitude: blank ± 3× standard deviation; for Max concentration: concentration at maximum amplitude; for EC50 conc: concentration corresponding to 50% of maximum amplitude; for Min concentration: lowest concentration inducing a significant proliferation
Description: 6-week old male C57/BL6 mice are killed by CO2 inhalation. The hip, femur, tibia and hind leg bones are removed. The marrow is extracted from the bone lumen by injecting Dulbecco's Modified Eagle Medium (DH medium) from the end portions which had been excised. The stem cells are washed and suspended again in DH medium supplemented with 20% foetal calf serum (FCS) The cell concentration is adjusted to 500000 cells/ml.
Products previously dissolved in DH medium supplemented with 20% FCS, amino acids and antibiotics are serially diluted directly into a microtiter plate. The products are tested in triplicate and each microtiter plate includes a negative control containing plain medium. The final volume in each well is 100 μl.
100 μl of the cell suspension are added to diluted solutions of products and the cells are incubated for 7 days in an incubator at 37° C., under 8% CO2 and a moisture saturated atmosphere. Cell proliferation is determined by measuring the […] of a chromogenic substrate XTT (2,3-bis[2-methoxy-4-nitro-5-sulphophenyl]-2H-tetrazolium-5-carboxanilide) in mitochondria of viable cells.
At the end of the incubation period, 50 μl of the XTT substrate solution (1 mg/ml XTT+0.008 mg/ml phenazine methosulfate) are added to each well. After an 8 hour incubation period at 37° C. under 8% CO2 in a moisture saturated incubator, the microtiter plates are read with a spectrophotometer at 492 nm against a reference sample at 690 nm.
Results are expressed as mean value±standard deviation and plotted as a dose versus response curve. Values for a negative control composed of DH medium (mean±standard deviation) are also graphically shown.
From this dose versus response curve, 3 curve variables are computed:
Max: maximum curve amplitude and corresponding concentration
EC50: concentration corresponding to 50% of maximum amplitude
Min: lowest concentration inducing a significant proliferation corresponding to the blank±3× standard deviation value
Concentration values corresponding to EC50 and Min are determined from line segments joining different points on the curve.
If the curve has no plateau phase but an ascending configuration for the highest concentration being tested, a “>” sign is shown before Max and EC50 values.

[2] = tested on: CD83, CD86 surface markers of predendritic cells (DC-6); test: dendritic cell differentiation test: CD83, CD86 surface marker expression; assay type: cell-based, human; details: for CD86 % CD / CD86 Fluorescence: 10 μg/ml; for CD86 % CD: products redissolved in pyrogen-free water, % of dendritic cells; for CD86 Fluorescence: mean fluorescence value
Description: The ability of products of the invention to induce maturation of predendritic cells into dendritic cells was assessed. The following parameters were measured: FITC-Dextran conjugate take-up and expression of CD83, CD86 surface markers.
Mononucleated cells of peripheral blood are isolated from buffy coats of healthy donors. Purified monocytes by adherence selection are resuspended in RPMI-1640 medium containing 10% of foetal calf serum (FCS), GM-CSF and IL-4 (10 ng/ml) at a density of 1×10^6 cells/ml. Cells are divided into Petri Dishes (10×10^6 cells per dish) and cultured for 6 days with a change to fresh medium after 3 days. Cells thus obtained are called predendritic cells (DC-6). Maturation of predendritic cells into mature dendritic cells is achieved by incubating cells with diluted solutions of the products or LPS (positive control) for 3 more days (see product section below). At day 9 (DC-9), cells are harvested and analyzed for different indicators of dendritic cell maturation: assessment of CD83, CD86 surface marker expression as well as of their ability to take up FITC-Dextran conjugate. All these parameters are analyzed by an EPICS-XL-MCL model FACS (Coulter Immunology, Hialeah, […]).
Expression of surface markers is given as % of mean fluorescence of LPS-activated cells (positive control); FITC-Dextran conjugate take-up rate is calculated based on take-up of cells maintained in basic medium and is expressed in %.
Solutions are incubated at 37° C. for 20 minutes, subjected to vigorous stirring during 3 minutes and then diluted to 100 μg/ml in RPMI-1640 culture medium and used in diluted state at concentrations ranging from 10 μg/ml to 0.03 μg/ml. Reference Product: E. coli lipopolysaccharide (LPS, DIFCO, Detroit, Mich., U.S.A.), as a 5 mg/ml stock solution in PBS. An intermediate 100 μg/ml solution is prepared in RPMI 1640 culture medium. Concentrations of dilute solutions being tested range from 1 μg/ml to 0.03 μg/ml.
In another series of experiments, all acyl dipeptide-like compounds were freeze-dried and directly redissolved into pyrogen-free water. Different products as well as LPS control are tested at a concentration of 10 μg/ml. Results are given as % of dendritic cells and mean fluorescence value for dextran phagocytosis or CD86 surface marker expression.

[3] = tested on: human peripheral blood mononuclear cells; test: α TNF production by human peripheral blood mononuclear cells; assay type: cell-based; details: 18 hours
Description: Mononuclear cells of peripheral blood are recovered from buffy coats of 6 healthy donors. Such buffy coat cells are resuspended and mononuclear cells are isolated by centrifugation on a Ficoll-Paque gradient (Amersham Pharmacia). Purified mononuclear cells are resuspended into RPMI-1640 medium supplemented with 10% FCS, antibiotics, mercaptoethanol and L-glutamine. Cell concentration is adjusted to 2×10^6 viable cells/ml
100 μl of each one of these solutions of acyl dipeptide-like compounds bearing an accessory functional side chain spacer, diluted 100-, 10- or 1-fold in RPMI medium 1640, are dispensed into a microtiter plate. Samples are tested in triplicates, and each microtiter plate includes a negative control made up of plain medium. Dilutions of E. coli LPS (ranging grom 1 to 0.00001 μg/ml) are used as a positive control.
100 μl of the cell suspension are added to each well containing product dilute solutions or control. Cells are incubated with the products for 18 hours in an incubator at 37° C., under 5% CO2 and a moisture saturated atmosphere.
At the end of the incubation period, microtiter plates are centrifuged, and the supernatant fluids are pooled and frozen at −80° C. as aliquots until time of ELISA assay.
Concentration of α TNF secreted by mononuclear cells is determined by chemiluminescent ELISA (QuantiGlo #QTAOO R&D kit). 4-fold supernatant fluid dilutions are dispensed into each well of the microtiter plate to which anti-αTNF antibodies are bound. The microtiter plate is incubated for 4 hours at room temperature. After washing, peroxidase-conjugated anti-human a TNF antibody is added. Following a 2 hour incubation period and thorough washing, a chemiluminescent substrate is added and chemilunescence is read after 20 minutes. α TNF content in the supernatant fluid is determined with respect to a standard curve covering the 7000 to 0.7 pg/ml range.
Results are expressed in pg/ml of α TNF produced. Results derive from an experiment representative of acyl-dipeptide-like compound activity

SMILES	Max amplitude [1] [O.D]	Min amplitude [1] [O.D]	Max concentration [1] [µg/mL]	EC50 conc [1] [µg/mL]	Min concentration [1] [µg/mL]	CD86 % CD [2] [%]	CD86 Fluorescence [2]	α TNF produced ([3]; product 1 μg/ml) [pg/mL]	α TNF produced ([3]; product 10 μg/ml) [pg/mL]	α TNF produced ([3]; product 100 μg/ml) [pg/mL]	concentration inducing an increase in expression of CD83 and CD86 surface markers ([2]; FIGS. 75 & 76)
CCCCCCCCCCCC(=O)O[C@H](CCCCCCCCCCC)CC(=O)N[C@H](CC(=O)N[C@@H](CC(=O)O)C(=O)O)C(=O)NCCC[C@H](COC(=O)CCCCCN)NC(=O)C[C@H](O)CCCCCCCCCCC [OM-197-Asp-AC, N—[(R)-3-dodecanoyloxytetradecanoyl]-D-aspartic acid, α-N-{(4R)-5-(6-aminohexanoyloxy)-4-[(R)-3-hydroxytetradecanoyl-amino]-pentyl}amide β-N-[(1S)-1,2-dicarboxyethyl]Amide]	1.33	0.80	50	2.8 (≈ 2.55 µM)	1.27	26.7	2.4	20	172	132	
CCCCCCCCCCCC(=O)O[C@H](CCCCCCCCCCC)CC(=O)N[C@H](CC(=O)N[C@@H](CCCCN)C(=O)O)C(=O)NCCC[C@H](CO)NC(=O)C[C@H](O)CCCCCCCCCCC [OM-197-Lys]	1.56	< 0.86	25	3.3 (≈ 3.31 µM)	< 0.39	21.2	2.1	284	164	20	
CCCCCCCCCCCC(=O)O[C@H](CCCCCCCCCCC)CC(=O)N[C@H](CC(=O)NCCCN)C(=O)NCCC[C@H](CO)NC(=O)C[C@H](O)CCCCCCCCCCC [OM-197-AP, N—[(R)-3-dodecanoyloxytetradecanoyl]-D-aspartic acid, α-N-{(4R)-5-hydroxy-4-[(R)-3-hydroxy-tetradecanoylamino]pentyl}-amide β-N-(3-aminopropyl)amide]	1.49	0.80	25	2.2 (≈ 2.38 µM)	0.41	62.0	4.8	428	116	84	
CCCCCCCCCCCC(=O)O[C@H](CCCCCCCCCCC)CC(=O)N[C@H](CC(=O)O)C(=O)NCCC[C@H](COC(=O)CCCCC(O)CO)NC(=O)C[C@H](O)CCCCCCCCCCC (stereo partly drawn) [OM-197-MC-FV5, N—[(R)-3-dodecanoyloxytetradecanoylamino]-D-aspartic acid, α-N-{(4R)-5-hydroxy-4-[(R)-3-hydroxytetra-decanoylamino]-pentyl}amide 5-O-(6,7-dihydroxyheptanoate)]	1.75	0.80	50	32.0 (≈ 31.6 µM)	8.20	74.5	5.6	0	104	116	
CCCCCCCCCCCC(=O)O[C@H](CCCCCCCCCCC)CC(=O)NC(CCOP(=O)(O)O)C(=O)NCCCC(COC(=O)CCCCC(O)CO)NC(=O)C[C@H](O)CCCCCCCCCCC (stereo partly drawn) [OM-197-FV6, 3-[(R)-dodecanoyloxytetradecanoylamino]-4oxo-5-aza-9-[(R)-3-hydroxytetradecanoylamino]-decan-1,10-diol 1-dihydrogenphate 10-(6,7-dihydroxyheptanoate)]	1.52	0.80	50	5.7 (≈ 5.29 µM)	1.60	62.9	4.9	0	104	88	no effect at all
CCCCCCCCCCCC(=O)O[C@H](CCCCCCCCCCC)CC(=O)N[C@H](CC(=O)N[C@@H](CC(=O)O)C(=O)O)C(=O)NCCC[C@H](CO)NC(=O)C[C@H](O)CCCCCCCCCCC [OM-197-Asp, N—[(R)-3-dodecanoyloxytetradecanoyl]-D-aspartic acid, α-N-{(4R)-5-hydroxy-4-[(R)-3-hydroxytetradecanoylamino]-pentyl}Amide β-N-[(1S)-1,2-Dicarboxyethyl]Amide]	1.22	0.80	25	5.0 (≈ 5.08 µM)	1.89	29.0	2.6	0	28	80	
CCCCCCCCCCCC(=O)O[C@H](CCCCCCCCCCC)CC(=O)N[C@H](CC(=O)N[C@@H](CCCCN)C(=O)O)C(=O)NCCC[C@H](COC(=O)CCCCCN)NC(=O)C[C@H](O)CCCCCCCCCCC [OM-197-Lys-AC]	> 2.02	0.80	> 50	> 14.6	0.90	93.5	6.9	232	184	256	
CCCCCCCCCCCC(=O)O[C@H](CCCCCCCCCCC)CC(=O)N[C@H](CC(=O)O)C(=O)NCCC[C@H](COC(=O)CCC(=O)O)NC(=O)C[C@H](O)CCCCCCCCCCC [OM-197-MC-Succ]	2.16	0.80	50	24.7 (≈ 25.5 µM)	2.95	34.9	3.0	0	96	176	
